Here are results for ten compounds from US20230114728A1 (Venatorx Pharmaceuticals, Inc., priority 2019, published 2023).

The target in one assay is T1, P. aeruginosa PBP3 (Pseudomonas aeruginosa, UniProt G3XD46).
T1 construct: made in house
Nature of the assay: Bocillin-FL fluorescence polarization competition binding assay, P. aeruginosa PBP3. Particulars: fluorescence polarization competition binding assay using Bocillin-FL. A digest of the protocol: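 Binding of boronic acid inhibitors to purified Pseudomonas aeruginosa (PA01) PBP3 was measured by fluorescence polarization competition with Bocillin-FL, a fluorescent penicillin V. Reactions of 80 μl contained 0.75 μM PBP3 and 0.1 μM Bocillin-FL in 50 mM Hepes (pH 8.0), 300 mM NaCl and 5% (v/v) glycerol, in black 384-well plates. FP (Excitation 490 nm, Emission 520 nm) was read for up to 60 minutes. EC50 is the concentration that halves PBP-bound Bocillin-FL.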

Assay [1] relates to N. gonorrhoeae ATCC 49226. Kind of assay: Liquid broth MIC in Fastidious broth. In kind it is cell-based. Particulars: Neisseria gonorrhoeae, ATCC49226; N. gonorrhoeae strain ATCC 49226; Fastidious broth; read-out: Minimum Inhibitory Concentration, N. gonorrhoeae ATCC 49226. An outline of the steps:
(§1)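 Colonies were swabbed from chocolate agar after 24 h growth and standardised by optical density at 600 nm. Compounds were serially diluted twofold in Fastidious broth, and bacteria added to give 5×10^5 CFU/mL. After about 24 h at 36 °C in 5% CO2, the lowest concentration allowing under 10% growth was taken as MIC.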

The next assay concerns N. gonorrhoeae WHO K. Nature of the assay: Liquid broth MIC in Fastidious broth. The class given is cell-based. Particulars: Neisseria gonorrhoeae, read-out: Minimum Inhibitory Concentration, N. gonorrhoeae WHO K. A digest of the protocol:
(§2)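 MIC = lowest concentration giving <10% growth relative to untreated wells, scored by eye after ~24 h at 36 °C, 5% CO2. Strains carry mosaic PBP2; inoculum 5×10^5 CFU/mL in Fastidious broth with 2-fold serial compound dilutions.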

The next assay deals with N. gonorrhoeae WHO G. Nature of the assay: Liquid broth MIC in Fastidious broth. In kind it is cell-based. Particulars: Neisseria gonorrhoeae; N. gonorrhoeae strain WHO G; Fastidious broth; read-out: Minimum Inhibitory Concentration, N. gonorrhoeae WHO G. An outline of the steps:
as §1

The test system of another assay is N. gonorrhoeae WHO L. Kind of assay: Liquid broth MIC in Fastidious broth. The class given is cell-based. Particulars: Neisseria gonorrhoeae; N. gonorrhoeae strain WHO L; Fastidious broth; read-out: Minimum Inhibitory Concentration, N. gonorrhoeae WHO L. An outline of the steps: as §1
A further assay has as its system N. gonorrhoeae H041. Nature of the assay: Liquid broth MIC in Fastidious broth. The class given is cell-based. Particulars: Neisseria gonorrhoeae, H041, read-out: Minimum Inhibitory Concentration, N. gonorrhoeae H041. An outline of the steps: as §2
The subject of the next assay is N. gonorrhoeae FA1090. Nature of the assay: Liquid broth MIC in Fastidious broth. The following applies: Neisseria gonorrhoeae; N. gonorrhoeae strain FA1090; Fastidious broth; read-out: Minimum Inhibitory Concentration, N. gonorrhoeae FA1090. The class given is cell-based. An outline of the steps: as §1
The next assay concerns the target T2, E. coli K12 PBP3 (Escherichia coli, UniProt P0AD68).
T2 construct: made in house
Kind of assay: biochemical. The class given is binding. An outline of the steps: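 Fluorescence polarization (ex 490/em 520 nm) competition of inhibitors against Bocillin-FL at 0.1 μM, read up to 60 min. Final PBP levels: E. coli PBP3 1.5 μM; A. baumannii PBP2 2.5 μM, PBP3 0.2 μM in Tris pH 8.0/NaCl/glycerol/Tween 20; N. gonorrhoeae PBP2 […] in Hepes pH 8.0/NaCl/glycerol. EC50 = concentration halving PBP-bound Bocillin-FL.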

Values after ≈ are worked out from the molar mass of the structure shown.

T1 sequence (G3XD46 whole entry): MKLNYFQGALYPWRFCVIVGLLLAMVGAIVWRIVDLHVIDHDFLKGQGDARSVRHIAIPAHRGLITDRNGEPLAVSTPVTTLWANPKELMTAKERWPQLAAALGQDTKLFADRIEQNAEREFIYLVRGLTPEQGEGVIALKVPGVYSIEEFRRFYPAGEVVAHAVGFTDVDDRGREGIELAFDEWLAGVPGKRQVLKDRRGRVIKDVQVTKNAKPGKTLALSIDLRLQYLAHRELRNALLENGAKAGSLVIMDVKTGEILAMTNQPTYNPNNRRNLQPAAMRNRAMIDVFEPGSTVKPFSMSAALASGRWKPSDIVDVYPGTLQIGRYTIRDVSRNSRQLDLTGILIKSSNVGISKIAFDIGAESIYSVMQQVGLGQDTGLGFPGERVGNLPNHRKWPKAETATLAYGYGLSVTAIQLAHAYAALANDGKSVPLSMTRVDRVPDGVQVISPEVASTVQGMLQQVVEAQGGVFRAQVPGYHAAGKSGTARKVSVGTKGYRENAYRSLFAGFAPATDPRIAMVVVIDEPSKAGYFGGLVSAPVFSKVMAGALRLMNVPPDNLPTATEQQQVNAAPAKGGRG
T2 sequence (P0AD68 1-577): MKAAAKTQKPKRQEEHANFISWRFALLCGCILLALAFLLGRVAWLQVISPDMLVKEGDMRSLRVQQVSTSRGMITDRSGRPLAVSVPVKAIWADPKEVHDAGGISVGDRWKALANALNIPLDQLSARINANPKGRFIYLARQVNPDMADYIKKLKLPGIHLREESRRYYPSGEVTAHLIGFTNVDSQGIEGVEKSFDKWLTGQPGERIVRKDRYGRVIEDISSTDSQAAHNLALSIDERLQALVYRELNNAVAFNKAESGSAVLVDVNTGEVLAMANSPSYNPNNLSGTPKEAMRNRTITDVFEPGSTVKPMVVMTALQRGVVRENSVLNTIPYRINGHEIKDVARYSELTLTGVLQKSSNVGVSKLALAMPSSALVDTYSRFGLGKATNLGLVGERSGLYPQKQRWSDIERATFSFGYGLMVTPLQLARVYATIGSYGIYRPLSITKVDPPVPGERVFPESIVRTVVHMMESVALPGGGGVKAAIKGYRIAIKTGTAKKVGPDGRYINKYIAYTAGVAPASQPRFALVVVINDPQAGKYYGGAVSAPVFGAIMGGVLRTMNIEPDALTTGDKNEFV

Take `O=C(NC(C(=O)N[C@H]1Cc2ccc(F)c(C(=O)O)c2OB1O)c1ncc(O)cc1F)c1ccc(O)c(O)c1Cl` (stereo partly drawn) [Example 8, (3R)-3-(2-(2-chloro-3,4-dihydroxybenzamido)-2-(3-fluoro-5-hydroxypyridin-2-yl)acetamido)-7-fluoro-2-hydroxy-3,4-dihydro-2H-benzo[e][1,2]oxaborinine-8-carboxylic acid]: on P. aeruginosa PBP3, the “P. aeruginosa PBP3 Potency” value was “D (D represents a potency <10 μM)”. For the same compound, the MIC in assay [1] is over 64 µg/mL; with N. gonorrhoeae WHO K, over 64 µg/mL; with N. gonorrhoeae WHO G it was 16 to 32 µg/mL (≈ 28.4 to 56.8 µM); with N. gonorrhoeae WHO L, over 64 µg/mL; in the assay on N. gonorrhoeae H041, over 64 µg/mL; in the assay with N. gonorrhoeae FA1090, 4 to 8 µg/mL (≈ 7.1 to 14.2 µM). Besides, the EC50 at E. coli K12 PBP3 lay within 30 to 500 µM.

As for `O=C(Nc1ccc(O)c(O)c1Cl)NC(C(=O)N[C@H]1Cc2ccc(F)c(C(=O)O)c2OB1O)c1ncc(O)cc1F` (stereo partly drawn) [Example 9, (3R)-3-(2-(3-(2-chloro-3,4-dihydroxyphenyl)ureido)-2-(3-fluoro-5-hydroxypyridin-2-yl)acetamido)-7-fluoro-2-hydroxy-3,4-dihydro-2H-benzo[e][1,2]oxaborinine-8-carboxylic acid], the “P. aeruginosa PBP3 Potency” value at P. aeruginosa PBP3 is listed as “D (D represents a potency <10 μM)”. Also, the MIC in assay [1] is over 64 µg/mL; with N. gonorrhoeae WHO K it was over 64 µg/mL; in the assay with N. gonorrhoeae WHO G, over 64 µg/mL; in the assay on N. gonorrhoeae WHO L, over 64 µg/mL; with N. gonorrhoeae H041, over 64 µg/mL; with N. gonorrhoeae FA1090, 16 to 32 µg/mL (≈ 27.6 to 55.3 µM). Besides, on E. coli K12 PBP3, the EC50 fell in the range of 30 to 500 µM.

Regarding `O=C(NC(C(=O)N[C@H]1Cc2ccc(F)c(C(=O)O)c2OB1O)c1ncc(O)cc1F)c1c(F)cc(O)c(O)c1Cl` (stereo partly drawn) [Example 10, (3R)-3-(2-(2-chloro-6-fluoro-3,4-dihydroxybenzamido)-2-(3-fluoro-5-hydroxypyridin-2-yl)acetamido)-7-fluoro-2-hydroxy-3,4-dihydro-2H-benzo[e][1,2]oxaborinine-8-carboxylic acid], on P. aeruginosa PBP3, the “P. aeruginosa PBP3 Potency” value is on record as “D (D represents a potency <10 μM)”. Also, the MIC in assay [1] is over 64 µg/mL; in the assay on N. gonorrhoeae WHO K, over 64 µg/mL; in the assay with N. gonorrhoeae WHO G, over 64 µg/mL; with N. gonorrhoeae WHO L it was over 64 µg/mL; with N. gonorrhoeae H041, over 64 µg/mL; in the assay on N. gonorrhoeae FA1090 it was 16 to 32 µg/mL (≈ 27.5 to 55 µM). On E. coli K12 PBP3, the EC50 fell in the range of 30 to 500 µM.

Regarding `CCN1CCN(C(=O)NC(C(=O)N[C@H]2Cc3ccc(F)c(C(=O)O)c3OB2O)c2ccc(C(=O)O)cc2)C(=O)C1=O` (stereo partly drawn) [Example 15, (3R)-3-(2-(4-carboxyphenyl)-2-(4-ethyl-2,3-dioxopiperazine-1-carboxamido)acetamido)-7-fluoro-2-hydroxy-3,4-dihydro-2H-benzo[e][1,2]oxaborinine-8-carboxylic acid], the “P. aeruginosa PBP3 Potency” value at P. aeruginosa PBP3 is given as “D (D represents a potency <10 μM)”. Moreover, the MIC was 4 to 8 µg/mL (≈ 7.01 to 14 µM) in assay [1]; 4 to 8 µg/mL (≈ 7.01 to 14 µM) in the assay with N. gonorrhoeae WHO K; 4 to 8 µg/mL (≈ 7.01 to 14 µM) in the assay with N. gonorrhoeae WHO G; over 64 µg/mL in the assay on N. gonorrhoeae WHO L; 4 to 8 µg/mL (≈ 7.01 to 14 µM) with N. gonorrhoeae H041; 0.25 to 0.5 µg/mL (≈ 0.438 to 0.877 µM) with N. gonorrhoeae FA1090. Also, the EC50 on E. coli K12 PBP3 is under 30 µM.

Regarding `CCN1CCN(C(=O)NC(C(=O)N[C@H]2Cc3cccc(C(=O)O)c3OB2O)c2ccc(O)c(NC(C)=O)c2)C(=O)C1=O` (stereo partly drawn) [Example 17, (3R)-3-(2-(3-acetamido-4-hydroxyphenyl)-2-(4-ethyl-2,3-dioxopiperazine-1-carboxamido)acetamido)-2-hydroxy-3,4-dihydro-2H-benzo[e][1,2]oxaborinine-8-carboxylic acid], at P. aeruginosa PBP3, the “P. aeruginosa PBP3 Potency” value is recorded as “D (D represents a potency <10 μM)”. The MIC in assay [1] is over 64 µg/mL; with N. gonorrhoeae WHO K it was over 64 µg/mL; with N. gonorrhoeae WHO G, over 64 µg/mL; with N. gonorrhoeae WHO L, over 64 µg/mL; in the assay with N. gonorrhoeae H041 it was over 64 µg/mL; with N. gonorrhoeae FA1090, 1 to 2 µg/mL (≈ 1.72 to 3.44 µM). This compound came in with an EC50 on E. coli K12 PBP3 of 30 to 500 µM.

With `CCN1CCN(C(=O)NC(C(=O)N[C@H]2Cc3ccc(F)c(C(=O)O)c3OB2O)c2nc(N)sc2F)C(=O)C1=O` (stereo partly drawn) [Example 18, (3R)-3-(2-(2-amino-5-fluorothiazol-4-yl)-2-(4-ethyl-2,3-dioxopiperazine-1-carboxamido)acetamido)-7-fluoro-2-hydroxy-3,4-dihydro-2H-benzo[e][1,2]oxaborinine-8-carboxylic acid], the “P. aeruginosa PBP3 Potency” value at P. aeruginosa PBP3 is on record as “D (D represents a potency <10 μM)”. Further, the MIC in assay [1] fell in the range of 4 to 8 µg/mL (≈ 7.06 to 14.1 µM); in the assay on N. gonorrhoeae WHO K, 16 to 32 µg/mL (≈ 28.3 to 56.5 µM); in the assay on N. gonorrhoeae WHO G it was 4 to 8 µg/mL (≈ 7.06 to 14.1 µM); in the assay on N. gonorrhoeae WHO L, 16 to 32 µg/mL (≈ 28.3 to 56.5 µM); in the assay on N. gonorrhoeae H041, 16 to 32 µg/mL (≈ 28.3 to 56.5 µM); in the assay on N. gonorrhoeae FA1090, 1 to 2 µg/mL (≈ 1.77 to 3.53 µM). Besides, the EC50 at E. coli K12 PBP3 was under 30 µM.

For the compound `CCN1CCN(C(=O)N[C@H](C(=O)N[C@H]2Cc3cccc(C(=O)O)c3OB2O)c2nc(Cl)c(C(=O)O)cc2F)C(=O)C1=O` [Example 19, 6-((S)-2-(((R)-8-carboxy-2-hydroxy-3,4-dihydro-2H-benzo[e][1,2]oxaborinin-3-yl)amino)-1-(4-ethyl-2,3-dioxopiperazine-1-carboxamido)-2-oxoethyl)-2-chloro-5-fluoronicotinic acid], the “P. aeruginosa PBP3 Potency” value on P. aeruginosa PBP3 is listed as “D (D represents a potency <10 μM)”. The MIC was 16 to 32 µg/mL (≈ 26.4 to 52.8 µM) in assay [1]; over 64 µg/mL with N. gonorrhoeae WHO K; 4 to 8 µg/mL (≈ 6.6 to 13.2 µM) with N. gonorrhoeae WHO G; over 64 µg/mL in the assay with N. gonorrhoeae WHO L; over 64 µg/mL in the assay on N. gonorrhoeae H041; 1 to 2 µg/mL (≈ 1.65 to 3.3 µM) with N. gonorrhoeae FA1090. Further, the EC50 at E. coli K12 PBP3 was under 30 µM.

For the compound `CCN1CCN(C(=O)NC(C(=O)N[C@H]2Cc3cccc(C(=O)O)c3OB2O)c2ncc(C(=O)O)cc2F)C(=O)C1=O` (stereo partly drawn) [Example 20, 6-(2-(((R)-8-carboxy-2-hydroxy-3,4-dihydro-2H-benzo[e][1,2]oxaborinin-3-yl)amino)-1-(4-ethyl-2,3-dioxopiperazine-1-carboxamido)-2-oxoethyl)-5-fluoronicotinic acid], the “P. aeruginosa PBP3 Potency” value on P. aeruginosa PBP3 is “D (D represents a potency <10 μM)”. In addition, the MIC in assay [1] is 4 to 8 µg/mL (≈ 7 to 14 µM); in the assay on N. gonorrhoeae WHO K, 16 to 32 µg/mL (≈ 28 to 56 µM); in the assay with N. gonorrhoeae WHO G it was 4 to 8 µg/mL (≈ 7 to 14 µM); in the assay on N. gonorrhoeae WHO L it was over 64 µg/mL; with N. gonorrhoeae H041 it was 16 to 32 µg/mL (≈ 28 to 56 µM); with N. gonorrhoeae FA1090, 1 to 2 µg/mL (≈ 1.75 to 3.5 µM). In addition, at E. coli K12 PBP3, the EC50 is under 30 µM.

For `CCN1CCN(C(=O)NC(C(=O)N[C@H]2Cc3cccc(C(=O)O)c3OB2O)c2ccc(O)c(N(S(C)(=O)=O)S(C)(=O)=O)c2)C(=O)C1=O` (stereo partly drawn) [Example 21, (3R)-3-(2-(4-ethyl-2,3-dioxopiperazine-1-carboxamido)-2-(4-hydroxy-3-(N-(methylsulfonyl)methylsulfonamido)phenyl)acetamido)-2-hydroxy-3,4-dihydro-2H-benzo[e][1,2]oxaborinine-8-carboxylic acid], the “P. aeruginosa PBP3 Potency” value at P. aeruginosa PBP3 is reported as “D (D represents a potency <10 μM)”. Besides, the MIC was over 64 µg/mL in assay [1]; over 64 µg/mL in the assay on N. gonorrhoeae WHO K; over 64 µg/mL with N. gonorrhoeae WHO G; over 64 µg/mL with N. gonorrhoeae WHO L; over 64 µg/mL with N. gonorrhoeae H041; 4 to 8 µg/mL (≈ 5.75 to 11.5 µM) in the assay with N. gonorrhoeae FA1090. At E. coli K12 PBP3, this compound showed a 50% effective concentration (EC50) of under 30 µM.

Consider `CCN1CCN(C(=O)NC(C(=O)N[C@H]2Cc3cccc(C(=O)O)c3OB2O)c2ccc(O)c(NS(C)(=O)=O)c2)C(=O)C1=O` (stereo partly drawn) [Example 22, (3R)-3-(2-(4-ethyl-2,3-dioxopiperazine-1-carboxamido)-2-(4-hydroxy-3-(methylsulfonamido)phenyl)acetamido)-2-hydroxy-3,4-dihydro-2H-benzo[e][1,2]oxaborinine-8-carboxylic acid], for which, at P. aeruginosa PBP3, the “P. aeruginosa PBP3 Potency” value is given as “D (D represents a potency <10 μM)”. Further, the MIC in assay [1] is over 64 µg/mL; with N. gonorrhoeae WHO K, over 64 µg/mL; in the assay on N. gonorrhoeae WHO G, 16 to 32 µg/mL (≈ 25.9 to 51.8 µM); in the assay with N. gonorrhoeae WHO L it was over 64 µg/mL; in the assay on N. gonorrhoeae H041, over 64 µg/mL; in the assay on N. gonorrhoeae FA1090 it was 1 to 2 µg/mL (≈ 1.62 to 3.24 µM). The EC50 on E. coli K12 PBP3 was under 30 µM.
